This passage reports IC50 results from patent US11780841B2, “3,6-methano-1H-pyrrolo[3,2-b]pyridine and 3,6-methano-1H-pyrrolo[3,2-c]pyridine compounds and medicaments using same” (priority 2018, dated 2023).

Where two headings read alike, the source gives them in different places. Where only a bound is given, the exact number is not on record here.

The subject of this assay is recombinant rabies virus 1088 strain expressing Gaussia Luciferase (GLuc) (1088/GLuc). It is filed as cell-based.

In the case of `CC(C)CCN1C[C@H]2C[C@]3(C(=O)NCc4ccc(F)cc4)NC[C@H]2[C@H]1[C@H]3Cc1ccccc1` (relative stereo) [IF-547], the IC50 (read-out: Anti-rabies activity) is below 5 µM.
On the same count and under the same terms, as for `CC(C)CCN1C[C@H]2C[C@]3(C(=O)NCc4ccc(F)cc4)NC[C@H]2[C@H]1[C@H]3CC(C)C` (relative stereo) [IF-548], the figure is 10 to 30 µM; as for `CCCCCCNC(=O)[C@@]12C[C@@H]3CN(Cc4ccccc4)[C@@H]([C@@H]3CN1)[C@H]2CC(C)C` (relative stereo) [IF-560], below 5 µM; as for `O=C(NCc1ccc(F)cc1)[C@@]12C[C@@H]3CN(Cc4ccccc4)[C@@H]([C@@H]3CN1)[C@H]2Cc1ccccc1` (relative stereo) [IF-561], below 5 µM.
Same read-out and setting: the figure for `O=C(NCc1ccc(O)cc1)[C@@]12C[C@@H]3CN(Cc4ccccc4)[C@@H]([C@@H]3CN1)[C@H]2CCc1ccccc1` (relative stereo) [IF-565] is below 5 µM.
On the same count and under the same terms, the figure for `CC(C)CN1C[C@H]2C[C@]3(C(=O)NCCc4ccccc4)NC[C@H]2[C@H]1[C@H]3Cc1ccc(O)cc1` (relative stereo) [IF-567] is 10 to 30 µM.
Regarding `CC(C)CN1C[C@H]2C[C@]3(C(=O)NCc4cccc5ccccc45)NC[C@H]2[C@H]1[C@H]3Cc1ccc(O)cc1` (relative stereo) [IF-568], the IC50 (read-out: Anti-rabies activity) is below 5 µM.
The same measure, in the same setting: as for `CCCCCCNC(=O)[C@@]12C[C@@H]3CN(CC(C)C)[C@@H]([C@@H]3CN1)[C@H]2CC(C)C` (relative stereo) [IF-569], the figure is 10 to 30 µM; as for `CC(C)CN1C[C@H]2C[C@]3(C(=O)NCc4ccc(O)cc4)NC[C@H]2[C@H]1[C@H]3CCc1ccccc1` (relative stereo) [IF-576], 10 to 30 µM.
As for `CC(C)C[C@@H]1[C@@H]2[C@@H]3CN[C@@]1(C(=O)NCc1cccc4ccccc14)C[C@@H]3CN2Cc1ccc(O)cc1` (relative stereo) [IF-578], the IC50 (read-out: Anti-rabies activity) was below 5 µM.
Still for that read-out and setting: the figure for `CCCCCCNC(=O)[C@@]12C[C@@H]3CN(CCC(C)C)[C@@H]([C@@H]3CN1)[C@H]2Cc1ccc(O)cc1` (relative stereo) [IF-583] is below 5 µM.
As to `CC(C)CCNC(=O)[C@@]12C[C@@H]3CN(Cc4ccc(F)cc4)[C@@H]([C@@H]3CN1)[C@H]2Cc1ccccc1` (relative stereo) [IF-584], the IC50 (read-out: Anti-rabies activity) was below 5 µM.
As to `CC(C)CCNC(=O)[C@@]12C[C@@H]3CN(Cc4ccc(F)cc4)[C@@H]([C@@H]3CN1)[C@H]2CC(C)C` (relative stereo) [IF-585], the IC50 (read-out: Anti-rabies activity) was below 5 µM.
Same read-out and setting: the figure for `O=C(NCCc1ccccc1)[C@@]12C[C@@H]3CN(Cc4ccc(F)cc4)[C@@H]([C@@H]3CN1)[C@H]2Cc1ccccc1` (relative stereo) [IF-586] is 10 to 30 µM; for `CCCCCCNC(=O)[C@@]12C[C@@H]3CN(CCC(C)C)[C@@H]([C@@H]3CN1)[C@H]2Cc1ccccc1` (relative stereo) [IF-599] it is 10 to 30 µM; for `CCCCCCNC(=O)[C@@]12C[C@@H]3CN(CCc4ccccc4)[C@@H]([C@@H]3CN1)[C@H]2Cc1ccccc1` (relative stereo) [IF-602] it is 10 to 30 µM.
In the case of `CC(C)CNC(=O)[C@]12N=C[C@@H]3C[C@H]1CN(Cc1ccccc1)[C@H]2[C@@H]3CC(C)C` (relative stereo) [IIB-4], the IC50 (read-out: Anti-rabies activity) lay in the range of 5 to 10 µM and the IC50 (read-out: IC50) amounted to 8.9 µM.
The matching figures for `Cc1ccc(CNC(=O)[C@@]23C[C@@H]4CN(CC(C)C)[C@@H]([C@@H]4C=N2)[C@H]3Cc2ccccc2)cc1` (relative stereo) [IIF-16]: 10 to 30 µM and 28.7 µM.
Regarding `CC(C)CC[C@@H]1[C@H]2CN[C@@]3(C(=O)NCc4cccc5ccccc45)[C@@H](C2)CN(CC(N)=O)[C@@H]13` [IB-84], where the note is “read-out: Anti-rabies activity”, the IC50 is 10 to 30 µM.
In the case of `CC(C)C[C@@H]1[C@H]2CN[C@@]3(C(=O)NCCc4ccccc4)[C@@H](C2)CN(CC(N)=O)[C@@H]13` [IB-86], the IC50 (read-out: Anti-rabies activity) is 10 to 30 µM.
Same read-out and setting: the figure for `NC(=O)CN1C[C@@H]2C[C@@H]3CN[C@]2(C(=O)NCCc2ccccc2)[C@@H]1[C@@H]3Cc1ccccc1` [IB-87] is below 5 µM; for `CC(C)CC[C@@H]1[C@H]2CN[C@@]3(C(=O)NCCc4ccccc4)[C@@H](C2)CN(CC(N)=O)[C@@H]13` [IB-89] it is below 5 µM.
In the case of `NC(=O)CN1C[C@@H]2C[C@@H]3CN[C@]2(C(=O)NCc2cccc4ccccc24)[C@@H]1[C@@H]3Cc1cccc2ccccc12` [IB-90], under “read-out: Anti-rabies activity”, the IC50 was below 5 µM.
The same measure, in the same setting: as for `NC(=O)CN1C[C@@H]2C[C@@H]3CN[C@]2(C(=O)NCc2ccc(F)cc2)[C@@H]1[C@@H]3Cc1ccccc1` [IB-92], the figure is 10 to 30 µM; as for `NC(=O)CN1C[C@@H]2C[C@@H]3CN[C@]2(C(=O)NCc2ccc(F)cc2)[C@@H]1[C@@H]3CCc1ccccc1` [IB-95], below 5 µM.
The same measure, in the same setting: as for `NC(=O)CN1C[C@@H]2C[C@@H]3CN[C@]2(C(=O)NCc2ccc(F)cc2)[C@@H]1[C@@H]3Cc1cccc2ccccc12` [IB-96], the figure is 10 to 30 µM; as for `NC(=O)CN1C[C@@H]2C[C@@H]3CN[C@]2(C(=O)NCCc2ccccc2)[C@@H]1[C@@H]3Cc1cccc2ccccc12` [IB-97], below 5 µM.
On the same count and under the same terms, the figure for `CC(C)CCNC(=O)[C@]12NC[C@H]3C[C@H]1CN(CC(N)=O)[C@H]2[C@@H]3CCc1ccccc1` [IB-102] is below 5 µM.
For `CC(C)CCNC(=O)[C@]12NC[C@H]3C[C@H]1CN(CC(N)=O)[C@H]2[C@@H]3Cc1cccc2ccccc12` [IB-103], for the setting “read-out: Anti-rabies activity”, the IC50 fell in the range of 10 to 30 µM.
On the same count and under the same terms, as for `CCCCCCNC(=O)[C@]12NC[C@H]3C[C@H]1CN(CC(N)=O)[C@H]2[C@@H]3Cc1ccccc1` [IB-105], the figure is 10 to 30 µM; as for `CCCCCCNC(=O)[C@]12NC[C@H]3C[C@H]1CN(CC(N)=O)[C@H]2[C@@H]3CCC(C)C` [IB-108], 10 to 30 µM; as for `CCCCCCNC(=O)[C@]12NC[C@H]3C[C@H]1CN(CC(N)=O)[C@H]2[C@@H]3CCc1ccccc1` [IB-109], 10 to 30 µM.
The same measure, in the same setting: as for `CCCCCCNC(=O)[C@]12NC[C@H]3C[C@H]1CN(CC(N)=O)[C@H]2[C@@H]3Cc1cccc2ccccc12` [IB-110], the figure is below 5 µM; as for `NC(=O)CN1C[C@@H]2C[C@@H]3CN[C@]2(C(=O)NCc2ccccc2)[C@@H]1[C@@H]3CCc1ccccc1` [IB-130], 10 to 30 µM; as for `CCCCCCNC(=O)[C@]12NC[C@H]3C[C@H]1CN(CCCNC(=N)N)[C@H]2[C@@H]3CCc1ccccc1` [IB-174], 10 to 30 µM.
On the same count and under the same terms, the figure for `CC(C)C[C@@H]1[C@H]2CN[C@@]3(C(=O)NC(C)C)[C@@H](C2)CN(CCCNC(=N)N)[C@@H]13` [IB-176] is 10 to 30 µM.
`CC(C)NC(=O)[C@]12NC[C@H]3C[C@H]1CN(CCCNC(=N)N)[C@H]2[C@@H]3CCc1ccccc1` [IB-179]: the IC50 (read-out: Anti-rabies activity) was in the range of 10 to 30 µM.
Still for that read-out and setting: the figure for `N=C(N)NCCCN1C[C@@H]2C[C@@H]3CN[C@]2(C(=O)NCc2ccc(F)cc2)[C@@H]1[C@@H]3Cc1ccccc1` [IB-182] is 10 to 30 µM.
The same measure, in the same setting: the figure for `CC(C)CNC(=O)[C@]12NC[C@H]3C[C@H]1CN(CC(C)C)[C@H]2[C@@H]3CCCNC(=N)N` [IB-187] is 10 to 30 µM.
The same measure, in the same setting: as for `CC(C)CCNC(=O)[C@]12NC[C@H]3C[C@H]1CN(CC(C)C)[C@H]2[C@@H]3CCCNC(=N)N` [IB-192], the figure is below 5 µM.
In the case of `CC(C)CNC(=O)[C@]12NC[C@H]3C[C@H]1CN(Cc1ccccc1)[C@H]2[C@@H]3CCCNC(=N)N` [IB-198], under “read-out: Anti-rabies activity”, the IC50 fell in the range of 10 to 30 µM.
Same read-out and setting: the figure for `CC(C)CNC(=O)[C@]12NC[C@H]3C[C@H]1CN(Cc1ccc(O)cc1)[C@H]2[C@@H]3CCCNC(=N)N` [IB-203] is 10 to 30 µM.
On the same count and under the same terms, the figure for `N=C(N)NCCC[C@@H]1[C@H]2CN[C@@]3(C(=O)NCc4ccc(F)cc4)[C@@H](C2)CN(Cc2ccc(O)cc2)[C@@H]13` [IB-207] is 10 to 30 µM.
In the case of `N=C(N)NCCC[C@@H]1[C@H]2CN[C@@]3(C(=O)NCCc4ccccc4)[C@@H](C2)CN(Cc2ccccc2)[C@@H]13` [IB-247], the IC50 (read-out: Anti-rabies activity) lay in the range of 10 to 30 µM.
On the same count and under the same terms, as for `CCCCCCNC(=O)[C@]12NC[C@H]3C[C@H]1CN(Cc1ccccc1)[C@H]2[C@@H]3CCCNC(=N)N` [IB-249], the figure is 10 to 30 µM; as for `N=C(N)NCCC[C@@H]1[C@H]2CN[C@@]3(C(=O)NCc4ccc(F)cc4)[C@@H](C2)CN(Cc2ccccc2)[C@@H]13` [IB-250], 10 to 30 µM.
Same read-out and setting: as for `CCCCCCNC(=O)[C@]12NC[C@H]3C[C@H]1CN(CCc1ccccc1)[C@H]2[C@@H]3CCCNC(=N)N` [IB-256], the figure is 10 to 30 µM.
Same read-out and setting: as for `N=C(N)NCCC[C@@H]1[C@H]2CN[C@@]3(C(=O)NCc4ccccc4)[C@@H](C2)CN(Cc2ccc(F)cc2)[C@@H]13` [IB-260], the figure is 10 to 30 µM; as for `N=C(N)NCCC[C@@H]1[C@H]2CN[C@@]3(C(=O)NCCc4ccccc4)[C@@H](C2)CN(Cc2ccc(F)cc2)[C@@H]13` [IB-262], 10 to 30 µM; as for `CC(C)CC[C@@H]1[C@H]2CN[C@@]3(C(=O)NCCC(N)=O)[C@@H](C2)CN(Cc2ccccc2)[C@@H]13` [IB-274], 10 to 30 µM.
Turning to `N=C(N)NCCCNC(=O)[C@]12NC[C@H]3C[C@H]1CN(Cc1ccccc1)[C@H]2[C@@H]3Cc1ccccc1` [IB-276], the IC50 (read-out: Anti-rabies activity) lay within 10 to 30 µM.
Still for that read-out and setting: as for `N=C(N)NCCCNC(=O)[C@]12NC[C@H]3C[C@H]1CN(Cc1ccccc1)[C@H]2[C@@H]3CCc1ccccc1` [IB-279], the figure is 10 to 30 µM; as for `N=C(N)NCCCNC(=O)[C@]12NC[C@H]3C[C@H]1CN(Cc1ccccc1)[C@H]2[C@@H]3Cc1cccc2ccccc12` [IB-280], 10 to 30 µM.
Same read-out and setting: the figure for `N=C(N)NCCCN1C[C@@H]2C[C@@H]3CN[C@]2(C(=O)NCc2ccccc2)[C@@H]1[C@@H]3Cc1cccc2ccccc12` [IB-300] is 10 to 30 µM; for `N=C(N)NCCCN1C[C@@H]2C[C@@H]3CN[C@]2(C(=O)NCCc2ccccc2)[C@@H]1[C@@H]3Cc1cccc2ccccc12` [IB-327] it is 10 to 30 µM.
On to `CC(C)CC[C@@H]1[C@H]2CN[C@@]3(C(=O)NCCC(N)=O)[C@@H](C2)CN(CCc2ccccc2)[C@@H]13` [IB-342], for which the IC50 (read-out: Anti-rabies activity) fell in the range of 10 to 30 µM.
Take `N=C(N)NCCCNC(=O)[C@]12NC[C@H]3C[C@H]1CN(CCc1ccccc1)[C@H]2[C@@H]3Cc1ccccc1` [IB-344]: the IC50 (read-out: Anti-rabies activity) lay within 10 to 30 µM.
Still for that read-out and setting: as for `CC(C)CC[C@@H]1[C@H]2CN[C@@]3(C(=O)NCCCNC(=N)N)[C@@H](C2)CN(CCc2ccccc2)[C@@H]13` [IB-346], the figure is 10 to 30 µM.
Same read-out and setting: as for `N=C(N)NCCCNC(=O)[C@]12NC[C@H]3C[C@H]1CN(CCc1ccccc1)[C@H]2[C@@H]3Cc1cccc2ccccc12` [IB-347], the figure is 10 to 30 µM.
